Patent US10189777B2, “Benzenesulfonamido and related compounds for use as agonists of RORγ and the treatment of disease” (Lycera Corporation, priority 2014, dated 2019)

Experiments:
[1] = target: T1, HIS-tagged RORγ-LBD protein (Homo sapiens, UniProt P51449); test: RORγ-Ligand Binding Domain (LBD) TR-FRET Assay; type: biochemical; conditions: for TR-FRET Assay Max Response: upper plateau of 4-parameter fit, signal in the absence of ursolic acid or test compound set as 100; for EC50: with 2 μM RORγ antagonist ursolic acid, biotinylated SRC1 LXXLL peptide, ratio 665 nm/615 nm
T1 construct: made in house; host or cells: SF9 cells, baculovirus expression system; the lysate was used
T1 sequence (P51449 269-508 limits assumed): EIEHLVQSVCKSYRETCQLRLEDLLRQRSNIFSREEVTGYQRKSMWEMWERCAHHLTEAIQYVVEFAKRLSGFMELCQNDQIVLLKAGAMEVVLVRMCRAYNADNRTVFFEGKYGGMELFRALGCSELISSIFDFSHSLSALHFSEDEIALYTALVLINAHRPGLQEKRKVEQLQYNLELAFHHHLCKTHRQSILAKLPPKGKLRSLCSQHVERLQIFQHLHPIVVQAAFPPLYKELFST
Description: (§1) Exemplary compounds from the above Examples were tested for ability to increase RORγ activity using (i) a RORγ-Ligand Binding Domain (LBD) TR-FRET Assay, and (ii) a Gal4-RORγ Luciferase Reporter Assay in HEK-293T Cells. Assay procedures and results are described below.
Part I—Procedures for RORγ-Ligand Binding Domain TR-FRET Assay
HIS-tagged RORγ-LBD protein was expressed in SF9 cells using a baculovirus expression system. The lysate was diluted in assay buffer (50 mM Tris pH 7.0, 50 mM KCl, 1 mM EDTA, 0.1 mM DTT, 0.01% BSA) to obtain RORγ-LBD final concentration of −3 nM in a 384-well assay plate (need to titrate for each batch of protein).
A stock of biotinylated-LXXLL peptide from coactivator SRC1 (Biotin-[…]) was prepared in assay buffer and added to each well (200 nM final concentration). A solution of Europium tagged anti-HIS antibody (0.6 nM final concentration) and APC-conjugated streptavidin (30 nM final concentration) were also added to each well. RORγ antagonist ursolic acid was also included at a final concentration of 2 μM. Compounds were diluted in DMSO and further diluted in assay buffer with a final DMSO concentration at 1%.
The final assay mixture was incubated overnight at 4° C. or 2 hours at room temperature, and the fluorescence signal was measured on an Envision plate reader: (Excitation filter=340 nm; APC emission=665 nm; Europium emission=615 nm; dichroic mirror=D400/D630; delay time=100 μs, integration time=200 μs). 50% Effective concentration (EC50) values for test compounds were calculated from the quotient of the fluorescence signal at 665 nm divided by the fluorescence signal at 615 nm. The quotient of the fluorescence signals in the absence of ursolic acid or test compound is set as 100. Max Response is defined as the upper plateau in the signal as determined by line-fit using a 4-parameter logistic model in PRISM (GraphPad).

Gal4-RORγ-LBD = target: T2, Gal4-RORγ-LBD (Homo sapiens, UniProt P51449); test: Gal4-RORγ Luciferase Reporter Assay in HEK-293T Cells; type: cell-based; conditions: for EC50: HEK-293 cells, with 2 μM ursolic acid, incubated overnight, luciferase readout; for Gal4-RORγ Assay Max Response: upper plateau of 4-parameter fit, luciferase signal in the absence of ursolic acid or test compound defined at 100
T2 construct: expressed in transfected cells
T2 sequence (P51449 269-508 limits assumed): T1 sequence (P51449 269-508 limits assumed)
Description: as §1
Part II—Procedures for Gal4-RORγ Luciferase Reporter Assay in HEK-293T Cells
Transfection of HEK-293 Cells
In the following protocol, HEK-293 cells were transfected with a construct comprising the Gal4 DNA binding domain fused to the ligand binding domain of RORγ (Gal4-RORγ-LBD) in a pcDNA3.1neo plasmid, and also with a reporter construct comprising pGL4.31 Gal4-luciferase (Promega). Control cells were prepared similarly using empty pcDNA3.1neo and pGL4.31 vectors.
Trans-IT reagent (Mirus, 60 μL) at room temperature was added drop wise to OptiMEM (Invitrogen, 1.5 ml). This reagent mixture was mixed by inversion then incubated for 5 to 30 minutes at room temperature. It then was added to a solution of both expression vectors (5 μg each), mixed, and incubated at room temperature for about 20 minutes. HEK-293 cells were harvested from incubation flasks by removing the media, treating with TrypLE Express (Invitrogen), and incubating until the cells detached from the bottom of the flask (approximately 2-5 minutes). 10 Million cells were collected by centrifugation and re-suspended in 10 mL of Dulbecco's Modified Eagle Medium, High Glucose (DMEM, Invitrogen) containing 10% Fetal Bovine Serum and 100 IU each of penicillin and streptomycin. The re-suspended cells and the transfection mixture were added to a T75 flask, mixed and incubated overnight at 37° C. and 5% CO2.
The cells were harvested as described above, counted, and centrifuged to obtain the desired number of cells, then re-suspended in complete growth media at 0.75×10^6 cells/mL. The RORγ antagonist, ursolic acid, was added to the cells at a final concentration of 2 μM. Cells were plated at 20 μL of cell suspension/well (10,000-15,000 cells/well) in white tissue culture treated 384 well plates. Test compounds were dissolved at 10 mM in DMSO then diluted into complete growth medium to 5× the final intended test concentration. These drug stock solutions, 5 μL/well were added to the tissue culture plate. The final DMSO concentration was 0.2%. The plates were briefly centrifuged then incubated overnight at 37° C. and 5% CO2. To conduct the assay, the tissue culture plates were allowed to equilibrate to room temperature and One-Glo luciferase reagent (Promega, 25 μL/well) was added. The plates were briefly centrifuged then incubated at room temperature for 10 minutes. The luciferase intensity was read on an Envision plate reader (Perkin Elmer). RORγ activity was determined relative to controls and plotted as a function of test compound concentration using PRISM (GraphPad) to determine a 50% effective concentration (EC50). The luciferase signal in the absence of ursolic acid or test compound is defined at 100. The Max Response is the upper plateau in the signal as determined by line-fit using a 4-parameter logistic model in PRISM (GraphPad).

EC50 [1] [nM]	EC50 (Gal4-RORγ-LBD) [nM]	SMILES	TR-FRET Assay Max Response [1]	Gal4-RORγ Assay Max Response (Gal4-RORγ-LBD)
< 500	> 10000	CCN(c1cccc(OC2CCc3cccc(F)c32)c1)S(=O)(=O)c1cccc(C(F)(F)F)c1 (stereo not shown)	*** (The symbol “***” indicates a value in the range of greater than 150 to 200)	**** (The symbol “****” indicates a value greater than 200)
< 500	5000 to 10000	CCN(c1cccc(OC2CCc3cccc(Cl)c32)c1)S(=O)(=O)c1cccc(C(F)(F)F)c1 (stereo not shown)	*** (The symbol “***” indicates a value in the range of greater than 150 to 200)	*** (The symbol “***” indicates a value in the range of greater than 150 to 200)
< 500	500 to 5000	CCN(c1cccc(OCc2c(Cl)cccc2Cl)c1)S(=O)(=O)c1cccc(C(F)(F)F)c1	*** (The symbol “***” indicates a value in the range of greater than 150 to 200)	** (The symbol “**” indicates a value in the range of greater than 90 to 150)
500 to 5000	500 to 5000	CCN(c1cccc(OCCc2c(Cl)cccc2Cl)c1)S(=O)(=O)c1cccc(C(F)(F)F)c1	**** (The symbol “****” indicates a value greater than 200)	** (The symbol “**” indicates a value in the range of greater than 90 to 150)
500 to 5000	> 10000	CCN(c1cccc(OCCc2c(F)cccc2Cl)c1)S(=O)(=O)c1cccc(C(F)(F)F)c1	*** (The symbol “***” indicates a value in the range of greater than 150 to 200)	** (The symbol “**” indicates a value in the range of greater than 90 to 150)
< 500	500 to 5000	CCN(c1cccc(OCc2c(F)cccc2C(F)(F)F)c1)S(=O)(=O)c1cccc(C(F)(F)F)c1	**** (The symbol “****” indicates a value greater than 200)	** (The symbol “**” indicates a value in the range of greater than 90 to 150)
< 500	> 10000	CCN(c1cccc(OCc2c(F)cccc2OC)c1)S(=O)(=O)c1cccc(C(F)(F)F)c1	**** (The symbol “****” indicates a value greater than 200)	
< 500	5000 to 10000	CCN(c1cccc(OCc2cc(Cl)ccc2Cl)c1)S(=O)(=O)c1cccc(C(F)(F)F)c1	**** (The symbol “****” indicates a value greater than 200)	*** (The symbol “***” indicates a value in the range of greater than 150 to 200)
500 to 5000	500 to 5000	CCN(c1cccc(OCc2ccccc2Cl)c1)S(=O)(=O)c1cccc(C(F)(F)F)c1	**** (The symbol “****” indicates a value greater than 200)	** (The symbol “**” indicates a value in the range of greater than 90 to 150)
500 to 5000	> 10000	CCOc1nn(CC)cc1S(=O)(=O)N(CC)c1cccc(OC2CCc3ccccc32)c1 (stereo not shown)	**** (The symbol “****” indicates a value greater than 200)	
500 to 5000	500 to 5000	CCOc1nn(CC)cc1S(=O)(=O)N(CC)c1cccc(OCc2c(F)cccc2Cl)c1	**** (The symbol “****” indicates a value greater than 200)	** (The symbol “**” indicates a value in the range of greater than 90 to 150)
< 500	500 to 5000	CCN(c1cccc(NCc2ccccc2Cl)c1)S(=O)(=O)c1cccc(C(F)(F)F)c1	**** (The symbol “****” indicates a value greater than 200)	** (The symbol “**” indicates a value in the range of greater than 90 to 150)
< 500	< 500	CCC(c1ccc(OCc2c(F)cccc2Cl)cc1)S(=O)(=O)c1cccc(C(F)(F)F)c1 (stereo not shown)	*** (The symbol “***” indicates a value in the range of greater than 150 to 200)	** (The symbol “**” indicates a value in the range of greater than 90 to 150)
5000 to 10000	500 to 5000	CCC(c1cccc(OCc2ccccc2)c1)S(=O)(=O)c1cccc(C(F)(F)F)c1 (stereo not shown)	** (The symbol “**” indicates a value in the range of greater than 90 to 150)	* (The symbol “*” indicates a value in the range of 70 to 90)
< 500	500 to 5000	CCC(c1ccc(OCc2c(F)cccc2Cl)cc1)S(=O)(=O)c1ccc(Cl)cc1 (stereo not shown)	*** (The symbol “***” indicates a value in the range of greater than 150 to 200)	* (The symbol “*” indicates a value in the range of 70 to 90)
